Results published in US11944605B2, “Rapamycin analogs and uses thereof” (Janssen Pharmaceutica NV, priority 2018, dated 2024).
Values after ≈ are worked out from the molar mass of the structure shown. “Also recorded” adds a separate entry of the source.

Tests used:
[1] = test system: pS6K1 (p-p70 S6 Kinase (Thr389)) in MCF-7 cells; assay: AlphaLISA Ultra pS6K1 Assay; format: cell-based; conditions: Homo sapiens, 1.5 h; MCF7 cells, 90 min
Outline: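 AlphaLISA Ultra read-out (acceptor beads 2 h, then donor beads 2 h) on thawed lysates of MCF-7 cells. Cells had 20–24 h after seeding and a 2 h medium change, then 90 min of compound exposure at 0.5% final DMSO, with lysates stored at −80 °C.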

[2] = test system: mTORC2 pathway (Akt phosphorylation) in PC3 cells; assay: Western blot, mTORC2 pathway (pAkt) in PC3 cells; format: cell-based; conditions: 24 hours
Protocol: (§1) Western Blot Based pS6K1 and pAKT Assay at 24 and 48 Hour Timepoints
(§2) 1. Seed six well plate with 500,000 PC3 cells per well and incubate for 20˜24 hour.
(§3) 2. Add compounds into the cell plate. Incubate for 24 to 48 hours.
(§4) 4. Plate is placed on ice and the media is removed via aspiration. The wells are washed with 1 mL of 1× PBS and then fully aspirated.
(§5) 5. 110 μL of 1% Triton Lysis Buffer is added and each well is scraped vigorously.
(§6) 6. Cell homogenates are transferred to 1.5 mL eppendorf tubes on ice and spun down at 4° C. for 10 minutes at 10,000 rpm.
(§7) 9. The membranes were washed 3× with TBS-T with a 5 minute incubation between each wash then incubated with secondary antibody (LiCor IRDye 800 Donkey Anti Rabbit) for at least 30 minutes.
(§8) 10. The membranes were washed 3× with TBS-T with a 5 minute incubation between each wash.
(§9) 11. The gels were then incubated for 5 minutes with PBS at room temperature then imaged using a Li-Cor.
(§10) The methods employed were substantially similar to those described above. Compounds were evaluated in PC3 cells, Jurkat cells, wild-type mouse embryotic fibroblast (MEF) cells, tuberous sclerosis 2 (TSC2) negative (TSC −/−) MEF cells, and tuberous sclerosis 2 (TSC2) positive (TSC +/+) MEF cells. Cells were incubated with compounds of the present invention for various time periods (e.g., 5 minutes, 15 minutes, 30 minutes, 90 minutes, 24 hours, or 48 hours), and evaluated according to known methodologies, such as those herein described.

[3] = test system: 4E-BP1 phosphorylation in PC3 cells; assay: Western blot, 4E-BP1 phosphorylation in PC3 cells; format: cell-based; conditions: 24 hours
mTORC1 over mTORC2 = assay: mTORC1 selectivity over mTORC2 at 24 hrs (Western blot based pS6K1 and pAKT assay); format: cell-based; conditions: 24 hrs
[4] = test system: mTORC1 pathway (pS6K1 T389) in PC3 cells; assay: Western blot, mTORC1 pathway (pS6K1) in PC3 cells; format: cell-based; conditions: PC3 cells, 24 hours
Protocol: as §1, §2, §3, §4, §5, §6, §7, §8, §9, §10

[5] = test system: mTORC1 pathway in tuberous sclerosis 2 (TSC2) positive (TSC+/+) MEF cells; assay: Western blot, mTORC1 pathway in TSC+/+ MEF cells; format: cell-based, mouse; conditions: 24 hours
Protocol: as §10

[6] = test system: mTORC2 (Akt phosphorylation) in TSC+/+ MEF cells; assay: Western blot, mTORC2 pathway (pAkt) in TSC+/+ MEF cells; format: cell-based, mouse; conditions: 24 hours
Protocol: as §10

[7] = test system: pAKT (p-Akt 1/2/3 (Ser473)) in MCF-7 cells; assay: AlphaLISA Ultra pAKT Assay; format: cell-based; conditions: Homo sapiens, 1.5 h; MCF7 cells, 90 min
Protocol: AlphaLISA Ultra pAKT Assay
1. MCF-7 cells in Corning 3701 plate and incubate for 20˜24 hour.
16,000˜20,000 cells will be seeded in 36 μL medium per well.
2. Change the culture medium with fresh medium and incubate for another 90 minutes.
3. […]
4. Aspirate […] by HAMILTON, 10 μL rest per well.
5. Add 10 μL 2× lysis buffer using HAMILTON; total volume in wells is 20 μL. Allow cells to shake for 30 min. Cover plate by plastic foil and store plate at −80° C. up to analysis.
6. Thaw cell lysate at RT and transfer 10 ul lysate to assay plate (Optiplate-384).
7. Add 5 μL acceptor beads into assay plate and incubation for 2 hours
8. Add 5 μL donor beads and incubation for 2 hours
9. Count the plate by EnSpire Multimode Plate Reader

[8] = Solubility in 100 mM phosphate buffer (pH 7.4); format: physicochemical; conditions: pH 7.4, aqueous buffer
Source text: The compound numbers correspond to the compound numbers in Table 1.

| Compound | IC50 [1] [nM] | inhibition of mTORC2 (Akt phosphorylation) [2] | inhibition of 4E-BP1 phosphorylation [3] | mTORC1 selective @ 24 hrs (mTORC1 over mTORC2) | inhibition of the mTORC1 pathway [4] | inhibition of the mTORC1 pathway [5] | inhibition of mTORC2 (Akt phosphorylation) [6] | IC50 [7] [nM] | solubility [8] [µM] |
| --- | --- | --- | --- | --- | --- | --- | --- | --- | --- |
| CO[C@@H]1C[C@H](C[C@@H](C)[C@@H]2CC(=O)[C@H](C)/C=C(\C)[C@@H](O)[C@@H](OC)C(=O)[C@H](C)C[C@H](C)/C=C/C=C/C=C(\C)C(OCCS(=O)(=O)CCS(=O)(=O)CCO)C[C@@H]3CC[C@@H](C)[C@@](O)(O3)C(=O)C(=O)N3CCCC[C@H]3C(=O)O2)CC[C@H]1O (stereo partly drawn) [I-102, (21E,23E,25E,26E,34R,35S,36R,37R,39R,41S,44S,45R,46R,55S)-45, 55-dihydroxy-43-[2-[2-(2-hydroxyethylsulfonyl)ethylsulfonyl]ethoxy]-44-[(1S)-2-[(1S,3R, 4R)-4-hydroxy-3-methoxy-cyclohexyl]-1-methyl-ethyl]-46-methoxy-34,35,36,37,47,48-hexamethyl-70, 71-dioxa-56-azatricyclohexatriaconta-21,23,25(47),26(48)-tetraene-49,50,51,52,53-pentone] | 10 to 100 | do not inhibit | no inhibition | YES | strong inhibition | – | – | – | – |
| CO[C@@H]1C[C@H](C[C@@H](C)[C@@H]2CC(=O)[C@H](C)/C=C(\C)[C@@H](O)[C@@H](OC)C(=O)[C@H](C)C[C@H](C)/C=C/C=C/C=C(\C)[C@@H](OCCOCCOCCO)C[C@@H]3CC[C@@H](C)[C@@](O)(O3)C(=O)C(=O)N3CCCC[C@H]3C(=O)O2)CC[C@H]1OCCO [I-110, (21E,23E,25E,26E,36R,37S,38R,39R,41S,43S,45S,46S,47R,48R,57R)-47, 57-dihydroxy-45-[2-[2-(2-hydroxyethoxy)ethoxy]ethoxy]-46-[(1R)-2-[(1S,3R, 4R)-4-(2-hydroxyethoxy)-3-methoxy-cyclohexyl]-1-methyl-ethyl]-48-methoxy-36,37,38,39,49,50-hexamethyl-68, 69-dioxa-58-azatricyclohexatriaconta-21,23,25(49),26(50)-tetraene-51, 52,53,54,55-pentone] | 0.1 to 1 | – | – | YES | – | moderate concentration dependent inhibition | do not inhibit | – | – |
| CO[C@@H]1C[C@H](C[C@@H](C)[C@@H]2CC(=O)[C@H](C)/C=C(\C)[C@@H](O)[C@@H](OC)C(=O)[C@H](C)C[C@H](C)/C=C/C=C/C=C(\C)C(OCCOCCOCCOCCOCCOCCOCCOCCOCCO)C[C@@H]3CC[C@@H](C)[C@@](O)(O3)C(=O)C(=O)N3CCCC[C@H]3C(=O)O2)CC[C@H]1O (stereo partly drawn) [I-97, (21E,23E,25E,26E,46R,47S,48R,49R,51S,53S,56S,57R,58R,67R)-57, 67-dihydroxy-55-[2-[2-[2-[2-[2-[2-[2-[2-(2-hydroxyethoxy)ethoxy]ethoxy]ethoxy]ethoxy]ethoxy]ethoxy]ethoxy]ethoxy]-56-[(1R)-2-[(1S,3R,4R)-4-hydroxy-3-methoxy-cyclohexyl]-1-methyl-ethyl]-58-methoxy-46, 47,48,49,59,60-hexamethyl-78,79-dioxa-68-azatricyclohexatriaconta-21, 23,25(59),26(60)-tetraene-61,62,63,64,65-pentone] | 1 to 10 | do not inhibit | – | YES | – | modest concentration dependent inhibition | do not inhibit | – | – |
| CO[C@@H]1C[C@H](C[C@@H](C)[C@@H]2CC(=O)[C@H](C)/C=C(\C)[C@@H](O)[C@@H](OC)C(=O)[C@H](C)C[C@H](C)/C=C/C=C/C=C(\C)C(OCP(=O)(CO)CO)C[C@@H]3CC[C@@H](C)[C@@](O)(O3)C(=O)C(=O)N3CCCC[C@H]3C(=O)O2)CC[C@H]1O (stereo partly drawn) [I-106, (21E,23E,25E,26E,31R,32S,33R,34R,36S,38S,41S,42R,43R,52R)-40-[bis(hydroxymethyl)phosphorylmethoxy]-42,52-dihydroxy-4I-[(1R)-2-[(1S,3R,4R)-4-hydroxy-3-methoxy-cyclohexyl]-1-methyl-ethyl]-43-methoxy-31, 32,33,34,44,45-hexamethyl-65,66-dioxa-53-azatricyclohexatriaconta-21, 23,25(44),26(45)-tetraene-46,47,48,49,50-pentone] | 0.1 to 1 | do not inhibit | no inhibition | YES | strong inhibition | – | – | – | – |
| CO[C@@H]1C[C@H](C[C@@H](C)[C@@H]2CC(=O)[C@H](C)/C=C(\C)[C@@H](O)[C@@H](OC)C(=O)[C@H](C)C[C@H](C)/C=C/C=C/C=C(\C)[C@@H](OCCOCCO)C[C@@H]3CC[C@@H](C)[C@@](O)(O3)C(=O)C(=O)N3CCCC[C@H]3C(=O)O2)CC[C@H]1O [I-20] | 0.1 to 1 | – | – | YES | – | moderate concentration dependent inhibition | do not inhibit | ≥ 100 | 30 to 60 (≈ 29.6 to 59.3 µg/mL) |
| CO[C@@H]1C[C@H](C[C@@H](C)[C@@H]2CC(=O)[C@H](C)/C=C(\C)[C@@H](O)[C@@H](OC)C(=O)[C@H](C)C[C@H](C)/C=C/C=C/C=C(\C)C(OCCCCCO)C[C@@H]3CC[C@@H](C)[C@@](O)(O3)C(=O)C(=O)N3CCCC[C@H]3C(=O)O2)CC[C@H]1O (stereo partly drawn) [I-113, (21E,23E,25E,26E,33R,34S,35R,36R,38S,40S,43S,44R,45R,54R)-44, 54-dihydroxy-43-[(1R)-2-[(1S,3R,4R)-4-hydroxy-3-methoxy-cyclohexyl]-1-methyl-ethyl]-42-(5-hydroxypentoxy)-45-methoxy-33, 34,35,36,46,47-hexamethyl-65,66-dioxa-55-azatricyclohexatriaconta-21, 23,25(46),26(47)-tetraene-48,49,50,51,52-pentone] | 0.1 to 1 | do not inhibit | no inhibition | YES | strong inhibition | – | – | – | – |
| CO[C@@H]1C[C@H](C[C@@H](C)[C@@H]2CC(=O)[C@H](C)/C=C(\C)[C@@H](O)[C@@H](OC)C(=O)[C@H](C)C[C@H](C)/C=C/C=C/C=C(\C)C(OC[C@H]3CO[C@@H](CO)CO3)C[C@@H]3CC[C@@H](C)[C@@](O)(O3)C(=O)C(=O)N3CCCC[C@H]3C(=O)O2)CC[C@H]1O (stereo partly drawn) [I-118, (23E,25E,27E,28E,32R,33S,34R,35R,36S,39S,41S,45R,46R,55R)-45, 55-dihydroxy-41-[(1R)-2-[(1S,2R,3R)-3-hydroxy-2-methoxy-cyclohexyl]-1-methyl-ethyl]-40-[[(25, 5S)-5-(hydroxymethyl)-1,4-dioxan-2-yl]methoxy]-46-methoxy-32,33,34,35,47,48-hexamethyl-68, 69-dioxa-56-azatricyclohexatriaconta-23,25,27(47),28(48)-tetraene-49,50,51,52,53-pentone] | 1 to 10 | do not inhibit | no inhibition | YES | moderate concentration dependent inhibition; also recorded: strong inhibition | – | – | – | – |
